Data set [1] can be described thus: Plasma stability, rat. It counts as in vitro ADME. Conditions: 10 μM, 37°C, vs 0 min. As to the method:
To assess the plasma stability of YIAD002, […] rat plasma and incubated at 37°C for the following time points: 0, 30, and 120 min. At the end of incubation, acetonitrile with chlorpropamide was added to stop reactions. The solutions were centrifuged at 14,000 rpm at 4°C for 5 min and the supernatant was analyzed with LC-MS/MS. High performance liquid chromatography was carried out on a Kinetex C18 column (2.1 × 100 mm, 2.6 μm particle size, Phenomenex, USA). The composition of the mobile phase was 0.1% formic acid in water (A) and 0.1% formic acid in acetonitrile (B).

For data set [2], the system named is APP/PS1 mice. As to the kind of experiment: Morris water maze in APP/PS1 mice. Type of data set: in vivo, mouse. Conditions: 30 mg/kg/day oral, 10 weeks, vs vehicle. As to the method:
To test whether YIAD002 could reduce amyloid plaques in another AD mouse model, APP/PS1 transgenic mice (n = 24) and wildtype mice (n = 5) were assessed at the age of 7.5 months. YIAD002 was dissolved in PBS (0.5% methylcellulose) at two different concentrations (10 and 30 mg/kg/day) and administrated daily to APP/PS1 mice (n = 8 for each group) via oral gavage for 8 weeks. As a control, vehicle solutions were orally administrated to littermate APP/PS1 mice (n = 8) and wildtype mice (n = 5).
The Morris water maze was used to evaluate whether YIAD002 could improve cognitive function in APP/PS1 mice during the tenth week of administration. A circular stainless pool with a radius of 90 cm and height of 50 cm with water kept at 22±1°C. Nontoxic opaque white paint was used to hide a platform with a radius of 9 cm hidden 1 cm beneath the surface. The training phase consisted of 5 days, in which the mice were given 60 s to find the platform. On circumstances where a mouse could not reach the platform within 60 s, it was placed on the platform where it had to remain for 10 s. The probe test took place on the sixth day, in which the platform was removed and the mice swam freely for 60 s. Swimming trajectories were recorded and analyzed using SMART VIDEO TRACKING Software (Panlab, USA). To assess cognitive improvement in YIAD002-treated mice groups, latency to target (seconds) and the number of target crossings were compared to vehicle-treated APP/PS1 mice. After the probe trial, the mice were sacrificed and the collected brains were fixed in formalin.

Consider `CCC(C)(C)c1ccc(OCC(O)CN2CCCC2)c(C(C)(C)CC)c1.Cl` (centres unmarked) [YIAD002, 1-(3-(2,4-Di-tert-pentylphenoxy)-2-hydroxypropyl)pyrrolidin-1-ium chloride], for which the “Compound remaining in rat plasma” value in data set [1] (30 min) was found to be 94.5%. Besides, the “Compound remaining in rat plasma” value in data set [1] (120 min) is 87.7%. Further, the “Escape latency after 5 days of training” value in data set [2] (7.5-month-old APP/PS1 mice) was “significantly shortened”. In data set [2] (APP/PS1 mice), the “Latency to target, probe trial” value is reported as “significantly shorter” and the “Target crossings, probe trial” value was “increased target crossings”.

These data come from PMC9706920, “Aryloxypropanolamine targets amyloid aggregates and reverses Alzheimer-like phenotypes in Alzheimer mouse models” (Alzheimer's Research & Therapy, 2022).
